Measured values published in patent US12441723B2, “Pyrazole compounds, formulations thereof, and a method for using the compounds and/or formulations” (Rigel Pharmaceuticals, Inc., priority 2019, dated 2025).
Structures can show the parent of a compound that is named as a salt. Each block holds one compound with its values, some of them ahead of it.

Columns and labels:
Assay type in all cases: physicochemical
[1] = Modulated DSC glass transition temperature; settings: mDSC, reversing heat flow versus temperature
Method: FIG. 5 is a modulated DSC (mDSC) plot of reversing heat flow versus temperature, illustrating the heat flow for one embodiment of the spray-dried formulation and showing that the glass transition temperature (Tg) for that embodiment is 108.3° C.
FIG. 10 is an mDSC plot of reversing heat flow versus temperature, illustrating the heat flow for a […] sample of compound I-1, and showing that the glass transition temperature (Tg) for the […] sample is 106.1° C.

[2] = DVS isotherm, spray-dried formulation versus crystalline compound I-1; settings: DVS at 25° C.; crystalline compound I-1 compared with the spray-dried dispersion
Method: (§1) FIG. 1 is a dynamic vapor sorption (DVS) plot of percent change in mass versus target relative humidity (RH), illustrating the change in mass of one embodiment of the disclosed spray-dried formulation at 25° C. under various relative humidity conditions. The plot provides two isotherms: 1 is the sorption plot, illustrating the change in mass with increasing relative humidity steps; and 2 is the desorption plot, illustrating the change in mass with decreasing relative humidity steps.
as §1, with “FIG. 6” for “FIG. 1”, “a DVS” for “a dynamic vapor sorption (DVS)”, “relative humidity,” for “relative humidity (RH),”, “of a crystalline sample of compound I-1” for “of the disclosed spray-dried formulation”
FIGS. 1-10 provide structural and stability data concerning the spray-dried formulation (FIGS. 1-5) and a crystalline sample of compound I-1 (FIGS. 6-10). FIGS. 1 and 6 provide DVS isotherm plots for the spray-dried formulation and crystalline compound, respectively.

[3] = Physical and chemical stability of salts of I-18, 1 week (XRPD, HPLC purity); settings: for Area (%) of HPLC peak RRT 1.00: main peak; for Area (%) of HPLC peak RRT 1.17: peak = parent compound formed by hydrolysis; for Form change: XRPD
Method: The physical and chemical stability of the K salt, Arginine salt, Choline salt and Tris salt were evaluated under conditions of 25° C./60% RH and 40° C./75% RH for 1 week. Each sample was added into 3 mL glass vials, sealed by parafilm with several holes, and kept under tested condition. After one week, samples was taken for XRPD and HPLC purity test.

[4] = Hygroscopicity evaluation by DVS of salts of I-18; settings: 25° C., judged from uptake at 80% RH
Method: To investigate the solid form stability as a function of humidity, DVS isotherm plot of the K salt, Arginine salt, Choline salt and Tris salt were collected at 25° C. between 0 and 95% RH.

[5] = 25° C./60% RH, 1 week, listed as arginine salt
[6] = 40° C./75% RH, 1 week, listed as arginine salt
[7] = Initial, listed as arginine salt

glass transition temperature (Tg) [1]: 106.1 °C | change in mass when exposed to higher relative humidity [2]: substantially smaller change in mass
Structure (SMILES): CCO[C@H]1CC[C@H](n2cc(NC(=O)c3csc(-c4cn[nH]c4)n3)c(-c3nc(F)ccc3F)n2)CC1 [I-1, N-(3-(3,6-difluoropyridin-2-yl)-1-((1r,4r)-4-ethoxycyclohexyl)-1H-pyrazol-4-yl)-2-(1H-pyrazol-4-yl)thiazole-4-carboxamide]

Structure (SMILES): CCO[C@H]1CC[C@H](n2cc(NC(=O)c3csc(-c4cnn(C(C)OP(=O)(O)O)c4)n3)c(-c3nc(F)ccc3F)n2)CC1 (some centres unmarked) [I-110, 1-(4-(4-((3-(3,6-difluoropyridin-2-yl)-1-((1r,4r)-4-ethoxycyclohexyl)-1H-pyrazol-4-yl)carbamoyl)thiazol-2-yl)-1H-pyrazol-1-yl)ethyl dihydrogen phosphate arginine salt]
Area (%) of HPLC peak RRT 1.13 ([3]; 25° C./60% RH, 1 week): 0.06% | Area (%) of HPLC peak RRT 0.77 [3, 5]: 0.03% | Area (%) of HPLC peak RRT 1.35 [3, 5]: 0.06% | Area (%) of HPLC peak RRT 1.45 [3, 5]: 0.50% | Area (%) of HPLC peak RRT 1.71 [3, 5]: 0.74% | Area (%) of HPLC peak RRT 1.73 [3, 5]: 0.61% | HPLC purity change [3, 5]: slight purity decrease | Area (%) of HPLC peak RRT 1.00 [3, 5]: 95.31% | Area (%) of HPLC peak RRT 1.17 [3, 5]: 2.68% | Form change ([3]; 25° C./60% RH/1 week, listed as Arginine salt): no form change and No | Area (%) of HPLC peak RRT 1.13 ([3]; 40° C./75% RH, 1 week): 0.06% | Area (%) of HPLC peak RRT 0.77 [3, 6]: 0.04% | Area (%) of HPLC peak RRT 1.35 [3, 6]: 0.11% | Area (%) of HPLC peak RRT 1.45 [3, 6]: 0.47% | Area (%) of HPLC peak RRT 1.71 [3, 6]: 0.73% | Area (%) of HPLC peak RRT 1.73 [3, 6]: 0.60% | HPLC purity change [3, 6]: slight purity decrease | Area (%) of HPLC peak RRT 1.00 [3, 6]: 95.50% | Area (%) of HPLC peak RRT 1.17 [3, 6]: 2.48% | Form change ([3]; 40° C./75% RH/1 week, listed as Arginine salt): no form change and No | Initial purity (area %) ([3]; HPLC, before storage, listed as Arginine salt): 95.91 area % | Area (%) of HPLC peak RRT 1.35 ([3]; Initial): <0.03% | Area (%) of HPLC peak RRT 0.77 [3, 7]: <0.03% | Area (%) of HPLC peak RRT 1.13 [3, 7]: <0.03% | Area (%) of HPLC peak RRT 1.45 [3, 7]: 0.44% | Area (%) of HPLC peak RRT 1.71 [3, 7]: 0.73% | Area (%) of HPLC peak RRT 1.73 [3, 7]: <0.53% | Area (%) of HPLC peak RRT 1.00 [3, 7]: 95.91% | Area (%) of HPLC peak RRT 1.17 [3, 7]: 2.39% | hygroscopicity [4]: slight hygroscopic
